Results on six compounds are retold here after ChEMBL document CHEMBL5500366, “Discovery of the small molecular inhibitors against sclerostin loop3 as potential anti-osteoporosis agents by structural based virtual screening and molecular design” (Eur J Med Chem, 2024).

Calls of active or inactive are those of the source.

In one data set the target is Albumin (Homo sapiens, UniProt P02768). Put plainly: Binding affinity to human serum albumin. The class given is ADME. Particulars: isolated protein.
Sequence of Albumin (P02768 whole entry): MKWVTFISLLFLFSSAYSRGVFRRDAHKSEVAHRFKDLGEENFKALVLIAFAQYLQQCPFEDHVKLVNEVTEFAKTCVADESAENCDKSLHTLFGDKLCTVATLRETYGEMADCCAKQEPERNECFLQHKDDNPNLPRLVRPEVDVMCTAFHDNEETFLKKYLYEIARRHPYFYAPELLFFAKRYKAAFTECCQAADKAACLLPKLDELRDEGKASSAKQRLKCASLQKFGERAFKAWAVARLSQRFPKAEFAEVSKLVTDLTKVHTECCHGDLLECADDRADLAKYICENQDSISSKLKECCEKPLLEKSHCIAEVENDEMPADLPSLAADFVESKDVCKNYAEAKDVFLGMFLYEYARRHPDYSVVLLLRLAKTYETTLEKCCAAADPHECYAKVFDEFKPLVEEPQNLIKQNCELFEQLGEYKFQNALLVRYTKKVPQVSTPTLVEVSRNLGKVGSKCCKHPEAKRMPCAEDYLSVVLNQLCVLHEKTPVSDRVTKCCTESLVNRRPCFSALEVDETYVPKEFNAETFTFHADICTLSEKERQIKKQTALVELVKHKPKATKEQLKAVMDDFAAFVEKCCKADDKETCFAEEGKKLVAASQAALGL
A further data set is filed under the species Homo sapiens. The data set can be described thus: Binding affinity to FABP (unknown origin).
A short description of data set [1]: Cmax in sc dosed Sprague-Dawley rat. The class given is ADME, organism-based. Particulars: in vivo.
Data set [2] can be described thus: AUC in sc dosed Sprague-Dawley rat. Particulars: in vivo. In kind it is ADME, organism-based.
Data set [3] in a line: Half-life in sc dosed Sprague-Dawley rat. Particulars: in vivo. The class given is ADME, organism-based.
Data set [4] has as its target T1, Sclerostin (Homo sapiens, UniProt Q9BQB4).
T1 sequence (Q9BQB4 whole entry): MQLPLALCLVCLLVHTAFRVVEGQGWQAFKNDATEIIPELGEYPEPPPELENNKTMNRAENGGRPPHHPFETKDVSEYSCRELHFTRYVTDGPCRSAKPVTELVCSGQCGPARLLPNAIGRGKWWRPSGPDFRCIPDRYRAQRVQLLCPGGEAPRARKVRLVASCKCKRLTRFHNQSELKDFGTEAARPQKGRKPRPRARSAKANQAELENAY
The data set can be described thus: Binding affinity to SOST (unknown origin) by SPR analysis. On the technique in general: Surface plasmon resonance follows binding to a sensor surface in real time, without labels.

The target in data set [5] is T1, Sclerostin. The data set can be described thus: Binding affinity to SOST loop2 (unknown origin) by SPR analysis.
Data set [6] concerns the target T1, Sclerostin. Put plainly: Binding affinity to SOST loop3 (unknown origin) by SPR analysis.

By Cmax is commonly meant the peak of the concentration-time curve. By AUC is commonly meant the area under the concentration-time curve, a measure of exposure. Read a high AUC as more exposure. By half-life is commonly meant the time needed for the level to fall by half in the phase considered. Higher therefore signals slow decline. Take `CC(=O)NCC#Cc1ccc(C(=O)NCC(=O)O)cc1`: the Activity entry on Albumin was “Not Active”. Also, the result in the data set filed under Homo sapiens was inactive. The Cmax in data set [1] was determined as 5.81 ng/mL. This compound also displayed an AUC in data set [2] of 59.2 ng·h/mL. The same compound gave a half-life in data set [3] of 1.94 h.
Usually Kd stands for the concentration at which binding is half-saturated. A low value points to tighter binding. On to `O=c1ccc2ccccc2o1` [COUMARIN], for which the values for the Kd at Sclerostin [4] and on Sclerostin [5] were 0.273 µM and 0.231 µM, respectively.
In the case of `O=C1c2c(O)cc(O)cc2O[C@@H](c2ccc(O)c(O)c2)[C@H]1O` [(+)-EPITAXIFOLIN], binding at Sclerostin [4] was characterised by a dissociation constant (Kd) of 2.63 µM.
Consider `Oc1cc(O)c2c(c1)O[C@H](c1ccc(O)c(O)c1)[C@@H](O)C2` [CIANIDANOL], for which the equilibrium dissociation constant (Kd) on Sclerostin [4] turned out to be 1.58 µM; on Sclerostin [5], 1.84 µM.
Regarding `Nc1nc2c(c(=O)[nH]1)NC(CNc1ccc(C(=O)N[C@@H](CCC(=O)O)C(=O)O)cc1)CN2` (some centres undefined), the Kd on Sclerostin [4] came out at 0.0377 µM; on Sclerostin [6], 0.0424 µM.
For `O=C1c2c(O)cc(O)cc2O[C@@H](c2cc(O)c(O)c(O)c2)[C@H]1O`, the Kd is 4.78 µM on Sclerostin [4] and 3.9 µM at Sclerostin [5].
